This passage reports MIC, Activity and FC results from ChEMBL document CHEMBL1275481, “Mechanism and fitness costs of PR-39 resistance in Salmonella enterica serovar Typhimurium LT2” (2008).

In assay [1] the test system is Salmonella typhimurium. The assay can be described thus: Antimicrobial activity against PR-39-resistant Salmonella enterica serovar Typhimurium LT2 DA10899 harboring Q179Stop mutant gene by Etest. The assay is classed as functional.
For assay [2], the system named is Salmonella typhimurium. Kind of assay: Antimicrobial activity against PR-39-resistant sbmA-deficient Salmonella enterica serovar Typhimurium LT2 DA12088 by Etest. Format: functional.
Assay [3] has as its system Salmonella typhimurium. Kind of assay: Antimicrobial activity against PR-39-resistant Salmonella enterica serovar Typhimurium LT2 DA6192 by Etest. The assay is classed as functional.
Assay [4] has as its system Salmonella typhimurium. The assay can be described thus: Antimicrobial activity against Salmonella enterica serovar Typhimurium LT2 by Etest. Format: functional, Salmonella enterica subsp. enterica serovar Typhimurium.
The test system of assay [5] is Salmonella typhimurium. Kind of assay: Antimicrobial activity against Salmonella enterica serovar Typhimurium LT2 DA6192 by Etest. Format: functional.
The subject of assay [6] is Salmonella typhimurium. The assay can be described thus: Antimicrobial activity against Salmonella enterica serovar Typhimurium LT2 DA10896 harboring sbmA T375K mutant gene by Etest. Format: functional.
The subject of assay [7] is Salmonella typhimurium. Kind of assay: Antimicrobial activity against Salmonella enterica serovar Typhimurium LT2 DA10897 harboring sbmA W373Stop mutant gene by Etest. Format: functional.
Assay [8] concerns Salmonella typhimurium. The assay can be described thus: Antimicrobial activity against Salmonella enterica serovar Typhimurium LT2 DA10898 harboring deletion of bp 967 in sbmA gene by Etest. Format: functional.
Assay [9] concerns Salmonella typhimurium. Kind of assay: Antimicrobial activity against Salmonella enterica serovar Typhimurium LT2 DA10899 harboring sbmA Q179Stop mutant gene by Etest. The assay is classed as functional.
In assay [10] the test system is Salmonella typhimurium. Kind of assay: Antimicrobial activity against Salmonella enterica serovar Typhimurium LT2 DA10902 harboring deletion of bp 843-844 in sbmA gene by Etest. Format: functional.
For assay [11], the system named is Salmonella typhimurium. Kind of assay: Antimicrobial activity against Salmonella enterica serovar Typhimurium LT2 DA10905 harboring sbmA L379P mutant gene by Etest. The assay is classed as functional.
Assay [12] concerns Salmonella typhimurium. Kind of assay: Antimicrobial activity against Salmonella enterica serovar Typhimurium LT2 DA10907 harboring sbmA E287K mutant gene by Etest. Format: functional.
In assay [13] the test system is Salmonella typhimurium. The assay can be described thus: Antimicrobial activity against Salmonella enterica serovar Typhimurium LT2 DA10912 harboring sbmA Y326C mutant gene by Etest. The assay is classed as functional.
The subject of assay [14] is Salmonella typhimurium. Kind of assay: Antimicrobial activity against Salmonella enterica serovar Typhimurium LT2 DA10913 harboring sbmA C67Stop mutant gene by Etest. The assay is classed as functional.
Assay [15] relates to Salmonella typhimurium. The assay can be described thus: Antimicrobial activity against Salmonella enterica serovar Typhimurium LT2 DA10914 harboring sbmA S251L mutant gene by Etest. The assay is classed as functional.
The test system of assay [16] is Salmonella typhimurium. Kind of assay: Antimicrobial activity against sbmA-deficient Salmonella enterica serovar Typhimurium LT2 DA12088 by Etest. The assay is classed as functional.
The subject of assay [17] is Salmonella typhimurium. Kind of assay: Antimicrobial activity against sbmA-deficient Salmonella enterica serovar Typhimurium LT2 DA13090 harboring sbmA gene by Etest in presence of arabinose. Format: functional.
Assay [18] deals with Salmonella typhimurium. The assay can be described thus: Antimicrobial activity against Salmonella enterica serovar Typhimurium LT2 DA13088 harboring sbmA gene by Etest in presence of arabinose. The assay is classed as functional.
Assay [19] has as its system Salmonella typhimurium. Kind of assay: Antimicrobial activity against Salmonella enterica serovar Typhimurium LT2 DA14344 harboring sbmA Q179Stop gene by Etest in presence of arabinose. The assay is classed as functional.
Assay [20] concerns Salmonella typhimurium. The assay can be described thus: Antimicrobial activity against Salmonella enterica serovar Typhimurium LT2 at 8 uM after 24 hrs. The assay is classed as functional, organism-based. To be noted: Salmonella enterica subsp. enterica serovar Typhimurium.
In assay [21] the test system is Salmonella typhimurium. Kind of assay: Antimicrobial activity against Salmonella enterica serovar Typhimurium LT2 DA10899 harboring Q179Stop mutant gene at 8 uM after 24 hrs. The assay is classed as functional, organism-based. To be noted: Salmonella enterica subsp. enterica serovar Typhimurium str. LT2.
Assay [22] relates to Salmonella typhimurium. Kind of assay: Antimicrobial activity against sbmA-deficient Salmonella enterica serovar Typhimurium LT2 DA12088 at 8 uM after 24 hrs. Format: functional, organism-based. As to conditions: Salmonella enterica subsp. enterica serovar Typhimurium str. LT2.
Assay [23] concerns Salmonella typhimurium. Kind of assay: Antimicrobial activity against Salmonella enterica serovar Typhimurium LT2 at 16 uM after 24 hrs. The assay is classed as functional, organism-based. As to conditions: Salmonella enterica subsp. enterica serovar Typhimurium.
Assay [24] has as its system Salmonella typhimurium. The assay can be described thus: Antimicrobial activity against Salmonella enterica serovar Typhimurium LT2 DA10899 harboring Q179Stop mutant gene at 16 uM after 24 hrs. The assay is classed as functional, organism-based. To be noted: Salmonella enterica subsp. enterica serovar Typhimurium str. LT2.
Assay [25] has as its system Salmonella typhimurium. Kind of assay: Antimicrobial activity against sbmA-deficient Salmonella enterica serovar Typhimurium LT2 DA12088 at 16 uM after 24 hrs. Format: functional, organism-based. As to conditions: Salmonella enterica subsp. enterica serovar Typhimurium str. LT2.
Assay [26] concerns Salmonella typhimurium. The assay can be described thus: Antimicrobial activity against sbmA-deficient Salmonella enterica serovar Typhimurium LT2 DA12088 assessed as log increase in survival rate at 4 uM after 24 hrs relative to wild type. Format: functional.
Assay [27] deals with Salmonella typhimurium. The assay can be described thus: Antimicrobial activity against sbmA-deficient Salmonella enterica serovar Typhimurium LT2 DA12088 assessed as log increase in survival rate at 8 uM after 24 hrs relative to wild type. Format: functional.
The test system of assay [28] is Salmonella typhimurium. Kind of assay: Antimicrobial activity against sbmA-deficient Salmonella enterica serovar Typhimurium LT2 DA12088 assessed as log increase in survival rate at 16 uM after 24 hrs relative to wild type. Format: functional.
Setting [29] is: Salmonella enterica subsp. enterica serovar Typhimurium str. LT2.

Values after ≈ are worked out from the molar mass of the structure shown. Active and inactive are the calls of the source. The rule behind the calls is not given here.

Regarding `O=C(O)c1cn(C2CC2)c2cc(N3CCNCC3)c(F)cc2c1=O` [CIPROFLOXACIN], the MIC in [1], in assay [2] and in [3] was 0.008 µg/mL (≈ 0.0241 µM) in each case.
On to `CCn1cc(C(=O)O)c(=O)c2ccc(C)nc21` [NALIDIXIC ACID], for which the MIC in assay [1], in [2] and in [3] was 4 µg/mL (≈ 17.2 µM) in each case.
For the molecule `O=C(N[C@H](CO)[C@H](O)c1ccc([N+](=O)[O-])cc1)C(Cl)Cl` [CHLORAMPHENICOL], the MIC in [1], in [2] and in [3] was 4 µg/mL (≈ 12.4 µM) in each case.
`CN(C)[C@@H]1C(O)=C(C(N)=O)C(=O)[C@@]2(O)C(O)=C3C(=O)c4c(O)cccc4[C@@](C)(O)[C@H]3C[C@@H]12` [TETRACYCLINE]: the MIC in [1], in [2] and in [3] was 3 µg/mL (≈ 6.75 µM) in each case.
For BLEOMYCIN, the results for the MIC in assay [1] (setting [29]), in assay [2] (setting [29]) and in [3] (setting [29]) were 1.8 µg/mL, 1.8 µg/mL and 0.4 µg/mL, respectively.
Regarding `O=C1CN(/N=C/c2ccc([N+](=O)[O-])o2)C(=O)N1` [NITROFURANTOIN], the MIC in assay [1], in assay [2] and in assay [3] was 8 µg/mL (≈ 33.6 µM) throughout.
For the molecule H-GLLRKGGEKIGEKLKKIGQKIKNFFQKLVPQPEQ-OH, the MIC in assay [1], in [2] and in [3] was 32 µg/mL throughout.
Take `CO/N=C(\C(=O)N[C@@H]1C(=O)N2C(C(=O)[O-])=C(C[N+]3(C)CCCC3)CS[C@H]12)c1csc(N)n1` [CEFEPIME]: the MIC in assay [1], in assay [2] and in [3] was 0.064 µg/mL (≈ 0.133 µM) each time.
On to H-GLVRKGGEKFGEKLRKIGQKIKEFFQKLALEIEQ-OH, for which the MIC in assay [1] amounted to 23 µg/mL; in assay [2] it was 30 µg/mL; in [3] it was 23 µg/mL.
Turning to `CC[C@H](C)[C@H](NC(=O)[C@H](CCCCN)NC(=O)[C@H](CCC(=O)O)NC(=O)[C@H](CCCCN)NC(=O)[C@H](CO)NC(=O)[C@H](CCCCN)NC(=O)[C@H](CCCNC(=N)N)NC(=O)[C@H](Cc1ccccc1)NC(=O)[C@H](Cc1ccccc1)NC(=O)[C@H](CC(=O)O)NC(=O)CNC(=O)[C@H](CC(C)C)NC(=O)[C@@H](N)CC(C)C)C(=O)NCC(=O)N[C@@H](CCCCN)C(=O)N[C@@H](CCC(=O)O)C(=O)N[C@@H](Cc1ccccc1)C(=O)N[C@@H](CCCCN)C(=O)N[C@@H](CCCNC(=N)N)C(=O)N[C@H](C(=O)N[C@H](C(=O)N[C@@H](CCC(N)=O)C(=O)N[C@@H](CCCNC(=N)N)C(=O)N[C@H](C(=O)N[C@@H](CCCCN)C(=O)N[C@@H](CC(=O)O)C(=O)N[C@@H](Cc1ccccc1)C(=O)N[C@@H](CC(C)C)C(=O)N[C@@H](CCCNC(=N)N)C(=O)N[C@@H](CC(N)=O)C(=O)N[C@@H](CC(C)C)C(=O)N[C@H](C(=O)N1CCC[C@H]1C(=O)N[C@@H](CCCNC(=N)N)C(=O)N[C@H](C(=O)N[C@@H](CCC(=O)O)C(=O)N[C@@H](CO)C(=O)O)[C@@H](C)O)C(C)C)[C@@H](C)CC)C(C)C)[C@@H](C)CC` [CATHELICIDIN], the MIC in assay [1], in [2] and in assay [3] was 66 µg/mL (≈ 14.7 µM) each time.
Regarding COLISTIN, the MIC in assay [1] (setting [29]), in assay [2] (setting [29]) and in assay [3] (setting [29]) was 0.5 µg/mL throughout.
Turning to `COCC1=C(C(=O)O)N2C(=O)[C@@H](NC(=O)/C(=N\OC)c3csc(N)n3)[C@H]2SC1` [CEFPODOXIME], the MIC in assay [1], in [2] and in assay [3] was 0.38 µg/mL (≈ 0.889 µM) in each case.
Take `CC1(C)S[C@@H]2[C@H](NC(=O)[C@H](N)c3ccccc3)C(=O)N2[C@H]1C(=O)O` [AMPICILLIN]: the MIC in assay [1], in assay [2] and in [3] was 0.75 µg/mL (≈ 2.15 µM) in each case.
Turning to “H-RRRPRPPYLPRPRPPPFFPPRLPPRIPPGFPPRFPPRFP-NH2”, the MIC in assay [4] came out at 3 µM; in assay [5] it was 2 µM; in [6] it was 6 µM; in assay [7] it was 7 µM; in assay [8], 7 µM; in assay [9], 6 µM. Also, the MIC in assay [10] worked out at 7 µM; in assay [11], 7 µM; in assay [12] it was 7 µM; in [13], 5 µM; in [14], 7 µM; in [15], 7 µM. Besides, the MIC was determined as 6 µM in assay [16]; 3 µM in assay [17]; 1.5 µM in assay [18]; 3 µM in assay [19]; 28 µg/mL in assay [1]; 28 µg/mL in assay [2]. In [3], this molecule came in with an MIC of 8.5 µg/mL. The result in [20], in assay [21], in assay [22], in [23], in assay [24] and in assay [25] was inactive. The FC in assay [26], in assay [27] and in [28] was 4 in each case.
For the molecule `CO/N=C(\C(=O)N[C@@H]1C(=O)N2C(C(=O)O)=C(COC(N)=O)CS[C@H]12)c1ccco1` [CEFUROXIME], the MIC in assay [1], in assay [2] and in assay [3] was 4 µg/mL (≈ 9.43 µM) throughout.
In the case of `NC[C@H]1O[C@H](O[C@H]2[C@H](O)[C@@H](O[C@H]3O[C@H](CO)[C@@H](O)[C@H](N)[C@H]3O)[C@H](N)C[C@@H]2N)[C@H](O)[C@@H](O)[C@@H]1O` [KANAMYCIN], the MIC in assay [1], in [2] and in [3] was 1.5 µg/mL (≈ 3.1 µM) each time.
For the molecule `CN[C@@H]1[C@H](O[C@H]2[C@H](O[C@H]3[C@H](O)[C@@H](O)[C@H](N=C(N)N)[C@@H](O)[C@@H]3N=C(N)N)O[C@@H](C)[C@]2(O)C=O)O[C@@H](CO)[C@H](O)[C@H]1O` [STREPTOMYCIN], the MIC in [1], in [2] and in [3] was 3 µg/mL (≈ 5.16 µM) in each case.
As for `CC(=O)OCC1=C(C(=O)O)N2C(=O)[C@@H](NC(=O)Cc3cccs3)[C@H]2SC1` [CEPHALOTHIN], the MIC in assay [1], in [2] and in [3] was 3 µg/mL (≈ 7.57 µM) in each case.
